Holding throughout (format): cell-based
One experiment has as its system Calu-3 (lung cancer). Briefly: In vitro cytotoxicity of camptothecin analogues (CellTiter-Glo). The following applies: Homo sapiens, Calu-3, 96 h; 4 d incubation, growth inhibition by CellTiter-Glo; read-out: pIC50 Calu-3 (converted). Here is the method:
Cytotoxicity of the camptothecin analogues was assessed in vitro on the following cancer cell lines: SK-BR-3 (breast cancer), SKOV-3 (ovarian cancer), Calu-3 (lung cancer), ZR-75-1 (breast cancer) and MDA-MB-468 (breast cancer).
Briefly, serial dilutions of camptothecin analogues shown in Table 5.1 were prepared in RPMI 1640+10% FBS, and 20 uL of each dilution was added to 384-well plates. Cells cultured in log-phase growth were detached by brief incubation in 0.05% Trypsin and resuspended in respective culturing media at 20,000 cells/mL (with the exception of ZR-75 cells, which were resuspended at 10,000 cells/mL). 50 uL of cell suspension was then added to the plates containing test articles. Cells were incubated with test articles for 4 d at 37° C. (with the exception of ZR-75 cells, which were incubated for 5 d). Growth inhibition was assessed by CellTiter-Glo® (Promega Corporation, Madison, WI) and luminescence was measured on a Synergy™ H1 plate reader (BioTek Instruments, Winooski, VT). IC50 values were determined by GraphPad Prism (GraphPad Software, San Diego, CA).
For orientation: Cellular ATP, detected with luciferase, serves as a proxy for viable cell number.

The subject of experiment [1] is EBC-1 (lung carcinoma; FRα-negative) spheroids. Briefly: In vitro cytotoxicity of anti-FRα ADCs, 3D spheroids. The following applies: monoculture spheroids, 6-day treatment. Here is the method: (§1) The cytotoxicity capabilities of select ADCs from Example 12 were assessed in a panel of FRα-expressing cell line spheroids as described below. Cell lines used were IGROV-1 (ovarian adenocarcinoma), T-47D (breast carcinoma), OVCAR-3 (ovarian adenocarcinoma), HEC-1-A (uterine adenocarcinoma) and EBC-1 (lung carcinoma; FRα-negative).
(§2) Briefly, cells were seeded in Ultra-Low Attachment 384-well plates, centrifuged and incubated under standard culturing conditions to allow for spheroid formation and growth. Monoculture cell line spheroids were then treated with a titration of test article, generated in cell growth medium. Spheroids were incubated for 6 days under standard culturing conditions. After incubation, CellTiter-Glo® 3D reagent (Promega Corporation, Madison, WI) was spiked in all wells. Plates were incubated in the dark at room temperature for 1 hour and luminescence was quantified using a BioTek Cytation 5 Cell Imaging Multi-Mode Reader (Agilent Technologies, Inc., Santa Clara, CA). Based on blank wells (no test article added), percent cytotoxicity values were calculated and plotted against test article concentration using GraphPad Prism 9 software (GraphPad Software, San Diego, CA).

Experiment [2] concerns HEC-1-A (uterine adenocarcinoma) spheroids. The description is as above. The following applies: monoculture spheroids, 6-day treatment. Here is the method: as §1, §2
The test system of experiment [3] is IGROV-1 (ovarian adenocarcinoma) spheroids. The experiment is described as above. The following applies: monoculture spheroids, 6-day treatment. Here is the method:
as §1, §2

The test system of experiment [4] is OVCAR-3 (ovarian adenocarcinoma) spheroids. The description is as above. The following applies: monoculture spheroids, 6-day treatment. Here is the method:
as §1, §2

Experiment [5] relates to T-47D (breast carcinoma) spheroids. The experiment is described as above. The following applies: monoculture spheroids, 6-day treatment. Here is the method:
as §1, §2

In the case of `CC[C@@]1(O)C(=O)OCc2c1cc1n(c2=O)Cc2c-1nc1cc(F)c(OC)cc1c2CNC(=O)NCc1ccc(N)cc1` [Compound 135, (S)-1-(4-aminobenzyl)-3-((4-ethyl-8-fluoro-4-hydroxy-9-methoxy-3,14-dioxo-3,4,12,14-tetrahydro-1H-pyrano[3′,4′: 6,7]indolizino[1,2-b]quinolin-11-yl)methyl)urea], in the experiment with Calu-3 (lung cancer), the IC50 is 25.1 nM.
For “v21995-MC-GGFG-DXd: "ADCs comprising the antibody palivizumab (v21995) were used as non-targeted controls"; drug-linker MC-GGFG-DXd”, the EC50 (usually the midpoint of the concentration-response curve) came to 24.4 nM in experiment [1]; 27.6 nM in experiment [2]; 16.7 nM in experiment [3]; 46 nM in experiment [4]; 17.8 nM in experiment [5].

Source of the values: patent US20240269309A1, “CAMPTOTHECIN ANALOGUES, CONJUGATES AND METHODS OF USE” (priority 2021, published 2024).
